Converted amounts (≈) assume the structure as drawn. “Also recorded” adds a separate entry of the source. Read-outs that look alike come from different tables or passages of the source.
Assays:
MMP-2 = target: T1, MMP-2 (Homo sapiens, UniProt P08253); assay: MMP inhibition assay, MMP-2; assay type: biochemical
T1 construct: catalytic domains of three human MMPs; purchased Sigma-Aldrich
Procedure: (§1) To assess the selectivity of the compounds over human MMPs and on other bacterial collagenases, selected compounds were tested against ColG-CU and ColH-PD from C. histolyticum and ColA-CU from B. cereus strain ATCC14579. In addition, the compounds were tested on catalytic domains of three human MMPs, which are characterized by different depths of the S1′ binding pocket (MMP-1 (shallow), −2 (intermediate), and −3 (deep)). They were also tested against other important human off-targets, which are involved in gene expression and the processing of TNF-α; these include HDAC-3, -8, TACE (ADAM-17),[33],[34] and COX-1.
(§2) The MMP inhibition assay (Sigma-Aldrich, Saint Louise, MO) was performed as previously reported and in accordance with the manufacturer’s instructions. The fluorescence signals were measured in a CLARIOstar plate reader (BMG LABTECH, Ortenberg, Germany) at a concentration of 100 μM.

ColG-CU [1] = target: T2, ColG-CU (Hathewaya histolytica, UniProt Q9X721); assay: biochemical; assay type: biochemical, C. histolyticum; details: for inhibition at 100 µM: read-out: Percent inhibition of ColG-CU
T2 sequence (Q9X721 111-786): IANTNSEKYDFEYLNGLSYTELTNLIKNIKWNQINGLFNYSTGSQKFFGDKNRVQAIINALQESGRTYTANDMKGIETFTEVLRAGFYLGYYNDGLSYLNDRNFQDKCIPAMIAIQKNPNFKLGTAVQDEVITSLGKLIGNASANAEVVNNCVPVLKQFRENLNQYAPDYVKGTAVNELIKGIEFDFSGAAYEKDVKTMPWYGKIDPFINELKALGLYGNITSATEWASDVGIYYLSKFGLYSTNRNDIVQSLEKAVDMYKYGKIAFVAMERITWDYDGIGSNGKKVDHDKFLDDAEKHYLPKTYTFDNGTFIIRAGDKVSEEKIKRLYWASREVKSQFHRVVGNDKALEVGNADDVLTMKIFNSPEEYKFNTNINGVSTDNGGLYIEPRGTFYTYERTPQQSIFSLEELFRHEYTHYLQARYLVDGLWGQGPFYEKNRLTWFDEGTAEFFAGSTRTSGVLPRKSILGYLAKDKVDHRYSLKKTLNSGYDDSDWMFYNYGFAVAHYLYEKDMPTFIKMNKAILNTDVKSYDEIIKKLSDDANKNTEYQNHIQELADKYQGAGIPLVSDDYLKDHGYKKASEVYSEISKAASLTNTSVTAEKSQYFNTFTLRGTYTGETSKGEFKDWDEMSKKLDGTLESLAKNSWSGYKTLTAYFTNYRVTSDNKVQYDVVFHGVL

TACE (ADAM-17) = TACE (ADAM-17) (Homo sapiens, UniProt P78536); assay: Human off-target inhibition, TACE; assay type: biochemical
Chain of TACE (ADAM-17) (P78536 215-824): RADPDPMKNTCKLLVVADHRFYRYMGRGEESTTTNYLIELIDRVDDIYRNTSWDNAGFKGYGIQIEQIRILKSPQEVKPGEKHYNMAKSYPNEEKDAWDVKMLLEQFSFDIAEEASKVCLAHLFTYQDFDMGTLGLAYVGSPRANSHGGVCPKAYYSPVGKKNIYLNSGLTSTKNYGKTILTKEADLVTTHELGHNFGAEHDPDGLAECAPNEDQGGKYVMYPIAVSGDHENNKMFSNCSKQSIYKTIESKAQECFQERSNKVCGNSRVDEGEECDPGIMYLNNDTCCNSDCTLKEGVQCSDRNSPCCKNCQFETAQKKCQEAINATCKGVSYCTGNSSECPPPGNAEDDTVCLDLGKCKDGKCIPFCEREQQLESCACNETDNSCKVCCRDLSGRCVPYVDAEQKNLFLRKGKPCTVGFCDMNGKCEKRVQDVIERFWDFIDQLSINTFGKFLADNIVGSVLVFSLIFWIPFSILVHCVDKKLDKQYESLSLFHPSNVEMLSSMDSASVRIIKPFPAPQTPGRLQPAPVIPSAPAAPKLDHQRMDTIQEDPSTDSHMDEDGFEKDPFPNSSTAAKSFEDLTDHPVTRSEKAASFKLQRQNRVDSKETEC
Procedure: as §1

ColQ1-CU [2] = target: T3, ColQ1-CU (Bacillus cereus, UniProt B9J3S4); assay: biochemical; parameters: species or system B. cereus strain Q1
T3 sequence (B9J3S4 94-765 limits assumed): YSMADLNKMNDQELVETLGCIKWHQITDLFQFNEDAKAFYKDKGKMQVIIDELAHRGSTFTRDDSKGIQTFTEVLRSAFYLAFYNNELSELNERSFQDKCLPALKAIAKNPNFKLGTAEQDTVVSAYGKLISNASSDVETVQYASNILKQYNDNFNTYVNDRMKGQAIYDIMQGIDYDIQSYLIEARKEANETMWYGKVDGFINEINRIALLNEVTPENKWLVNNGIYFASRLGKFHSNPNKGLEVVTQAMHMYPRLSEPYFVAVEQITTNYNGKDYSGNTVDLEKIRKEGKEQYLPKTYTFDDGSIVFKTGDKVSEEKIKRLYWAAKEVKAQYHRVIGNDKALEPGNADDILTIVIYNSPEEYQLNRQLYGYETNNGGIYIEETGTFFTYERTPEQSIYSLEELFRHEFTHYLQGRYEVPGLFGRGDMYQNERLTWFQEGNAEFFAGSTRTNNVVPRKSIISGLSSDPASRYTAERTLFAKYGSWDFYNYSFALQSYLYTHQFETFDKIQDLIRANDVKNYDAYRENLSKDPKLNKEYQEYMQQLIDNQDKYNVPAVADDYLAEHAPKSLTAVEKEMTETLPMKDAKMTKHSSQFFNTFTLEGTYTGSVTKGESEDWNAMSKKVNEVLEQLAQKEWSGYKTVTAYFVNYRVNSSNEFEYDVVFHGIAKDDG

ColH-PD [3] = target: T4, ColH-PD (Hathewaya histolytica, UniProt Q46085); assay: biochemical; assay type: biochemical, C. histolyticum; details: for inhibition at 100 µM: read-out: Percent inhibition of ColH-PD
T4 sequence (Q46085 331-721 limits assumed): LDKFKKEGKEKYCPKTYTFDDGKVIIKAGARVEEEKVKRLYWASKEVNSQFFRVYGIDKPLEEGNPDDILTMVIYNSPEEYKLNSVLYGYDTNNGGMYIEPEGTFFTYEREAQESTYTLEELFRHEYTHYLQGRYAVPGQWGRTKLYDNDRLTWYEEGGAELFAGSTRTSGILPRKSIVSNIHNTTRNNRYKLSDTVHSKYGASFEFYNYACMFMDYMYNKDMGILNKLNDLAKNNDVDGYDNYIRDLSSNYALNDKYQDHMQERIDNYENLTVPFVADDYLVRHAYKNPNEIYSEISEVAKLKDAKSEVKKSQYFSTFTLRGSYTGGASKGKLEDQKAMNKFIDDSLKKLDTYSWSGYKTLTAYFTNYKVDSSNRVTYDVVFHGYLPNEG

HDAC-8 = target: T5, HDAC-8 (Homo sapiens, UniProt Q9BY41); assay: Human off-target inhibition, HDAC-8; assay type: biochemical
T5 sequence (Q9BY41 1-377): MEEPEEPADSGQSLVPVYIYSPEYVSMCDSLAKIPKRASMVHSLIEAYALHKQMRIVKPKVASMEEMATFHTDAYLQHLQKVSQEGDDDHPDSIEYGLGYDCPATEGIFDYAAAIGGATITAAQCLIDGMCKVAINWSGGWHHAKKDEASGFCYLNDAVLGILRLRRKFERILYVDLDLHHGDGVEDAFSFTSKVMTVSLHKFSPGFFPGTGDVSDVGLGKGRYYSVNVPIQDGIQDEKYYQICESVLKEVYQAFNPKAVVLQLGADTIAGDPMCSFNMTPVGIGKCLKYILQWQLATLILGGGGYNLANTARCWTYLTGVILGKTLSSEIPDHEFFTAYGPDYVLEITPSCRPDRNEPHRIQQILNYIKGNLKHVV
Procedure: as §1

MMP-3 = target: T6, MMP-3 (Homo sapiens, UniProt P08254); assay: MMP inhibition assay, MMP-3; assay type: biochemical
T6 construct: catalytic domains of three human MMPs; purchased Sigma-Aldrich
T6 sequence (P08254 100-272 limits assumed): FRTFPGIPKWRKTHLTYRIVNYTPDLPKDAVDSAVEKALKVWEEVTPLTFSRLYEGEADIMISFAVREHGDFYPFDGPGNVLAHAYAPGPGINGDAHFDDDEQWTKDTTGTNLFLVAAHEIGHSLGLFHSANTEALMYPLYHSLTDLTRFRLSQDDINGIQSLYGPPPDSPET
Procedure: as §1, §2

ColA-CU [4] = target: T7, ColA-CU (Bacillus cereus, UniProt Q81BJ6); assay: biochemical; assay type: biochemical, B. cereus strain ATCC14579; details: for inhibition at 100 µM: read-out: Percent inhibition of ColA-CU
T7 sequence (Q81BJ6 93-764): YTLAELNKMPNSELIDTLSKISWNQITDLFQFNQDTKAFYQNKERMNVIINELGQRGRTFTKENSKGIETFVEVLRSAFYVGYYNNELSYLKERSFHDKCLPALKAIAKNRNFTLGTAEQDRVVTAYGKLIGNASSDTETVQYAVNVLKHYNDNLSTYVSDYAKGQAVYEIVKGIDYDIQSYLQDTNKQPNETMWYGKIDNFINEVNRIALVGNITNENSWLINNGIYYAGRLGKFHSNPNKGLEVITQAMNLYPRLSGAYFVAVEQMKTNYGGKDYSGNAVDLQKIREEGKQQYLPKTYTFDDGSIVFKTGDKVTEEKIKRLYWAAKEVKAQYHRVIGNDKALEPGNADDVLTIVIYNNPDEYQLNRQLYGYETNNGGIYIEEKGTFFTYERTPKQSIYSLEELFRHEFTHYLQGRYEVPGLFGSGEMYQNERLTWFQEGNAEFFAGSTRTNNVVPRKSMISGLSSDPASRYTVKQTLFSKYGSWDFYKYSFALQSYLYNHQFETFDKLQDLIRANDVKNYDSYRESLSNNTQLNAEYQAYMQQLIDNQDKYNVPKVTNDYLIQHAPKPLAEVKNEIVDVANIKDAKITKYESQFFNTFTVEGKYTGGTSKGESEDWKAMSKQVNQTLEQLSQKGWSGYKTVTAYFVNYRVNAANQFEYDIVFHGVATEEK

HDAC-3 = HDAC-3 (Homo sapiens, UniProt O15379); assay: Human off-target inhibition, HDAC-3; assay type: biochemical
Chain of HDAC-3 (O15379 whole entry): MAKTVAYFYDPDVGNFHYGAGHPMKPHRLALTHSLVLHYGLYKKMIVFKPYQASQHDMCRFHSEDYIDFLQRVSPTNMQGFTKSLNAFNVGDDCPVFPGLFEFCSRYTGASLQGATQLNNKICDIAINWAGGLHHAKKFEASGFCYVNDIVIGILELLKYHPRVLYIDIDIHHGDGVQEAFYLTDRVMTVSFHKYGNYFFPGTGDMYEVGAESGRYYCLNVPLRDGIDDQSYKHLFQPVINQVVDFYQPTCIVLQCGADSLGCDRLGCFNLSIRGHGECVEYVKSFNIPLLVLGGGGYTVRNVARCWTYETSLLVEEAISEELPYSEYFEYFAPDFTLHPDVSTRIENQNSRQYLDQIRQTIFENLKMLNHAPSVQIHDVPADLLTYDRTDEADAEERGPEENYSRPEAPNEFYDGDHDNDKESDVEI
Chain of HDAC-3 (Q9Y618 395-489 partner limits assumed): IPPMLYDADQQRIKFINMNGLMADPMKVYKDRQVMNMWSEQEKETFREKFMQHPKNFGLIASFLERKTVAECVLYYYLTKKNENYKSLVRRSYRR
Procedure: as §1

MMP-1 = target: T8, MMP-1 (Homo sapiens, UniProt P03956); assay: MMP inhibition assay, MMP-1; assay type: biochemical
T8 construct: catalytic domains of three human MMPs; purchased Sigma-Aldrich
T8 sequence (P03956 98-276 limits assumed): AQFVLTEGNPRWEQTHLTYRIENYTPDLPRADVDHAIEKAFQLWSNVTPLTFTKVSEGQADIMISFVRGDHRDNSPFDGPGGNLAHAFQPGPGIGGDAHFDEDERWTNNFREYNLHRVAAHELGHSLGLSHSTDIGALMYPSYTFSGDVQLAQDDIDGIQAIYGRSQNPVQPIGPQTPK
Procedure: as §1, §2

B. cereus AH187 = assay: B. cereus growth inhibition assay; assay type: cell-based; details: Bacillus cereus, read-out: MIC50 (µM) AH187
[5] = system: B. cereus AH187 infection; assay type: in vivo, Galleria mellonella
[6] = system: B. cereus collagenases released in the NHDF infection model; assay type: cell-based, B. cereus AH187
[7] = system: NHDF cells infected with B. cereus; assay: NHDF infection model, cell morphology/attachment and fibrillar collagen (picrosirius red); assay type: cell-based, human; details: B. cereus infection, 5 h
ColQ1-FL = ColQ1-FL (Bacillus cereus, UniProt B9J3S4); assay type: biochemical; details: 12.5–1.5 μM tested, SDS-PAGE
Chain of ColQ1-FL (B9J3S4 94-965 limits assumed): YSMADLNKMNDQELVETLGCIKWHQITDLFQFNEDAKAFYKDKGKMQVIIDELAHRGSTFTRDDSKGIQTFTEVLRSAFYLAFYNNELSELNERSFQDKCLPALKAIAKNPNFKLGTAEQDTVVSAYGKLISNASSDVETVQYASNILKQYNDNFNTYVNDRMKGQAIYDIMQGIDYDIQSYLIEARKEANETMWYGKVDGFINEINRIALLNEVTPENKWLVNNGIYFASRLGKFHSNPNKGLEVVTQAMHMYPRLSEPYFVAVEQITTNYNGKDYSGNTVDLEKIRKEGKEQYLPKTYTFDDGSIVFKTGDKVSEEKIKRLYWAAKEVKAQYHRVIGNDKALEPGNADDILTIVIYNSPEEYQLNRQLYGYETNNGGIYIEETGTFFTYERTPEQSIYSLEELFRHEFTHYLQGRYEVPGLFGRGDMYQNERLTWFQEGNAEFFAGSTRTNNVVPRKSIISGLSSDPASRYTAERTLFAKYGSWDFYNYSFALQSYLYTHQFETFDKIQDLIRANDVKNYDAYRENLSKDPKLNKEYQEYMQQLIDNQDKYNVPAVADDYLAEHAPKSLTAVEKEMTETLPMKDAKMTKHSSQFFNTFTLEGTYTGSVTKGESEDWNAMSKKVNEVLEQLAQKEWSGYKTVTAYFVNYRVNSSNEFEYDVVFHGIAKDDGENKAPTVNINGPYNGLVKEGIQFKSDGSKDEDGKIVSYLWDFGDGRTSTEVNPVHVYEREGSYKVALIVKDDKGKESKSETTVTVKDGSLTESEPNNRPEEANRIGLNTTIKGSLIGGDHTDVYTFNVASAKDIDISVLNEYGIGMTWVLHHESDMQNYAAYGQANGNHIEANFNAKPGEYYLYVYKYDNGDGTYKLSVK

[8] = system: MDCK II cells infected with B. cereus AH187; assay type: cell-based, canine
ColA-CU [9] = target: T7, ColA-CU; assay type: biochemical, B. cereus; details: rapid dilution
ColG-CU [10] = target: T2, ColG-CU; assay type: biochemical, C. histolyticum; details: rapid dilution
ColH-PD [11] = target: T4, ColH-PD; assay type: biochemical, C. histolyticum
in vitro [12] = details: dog, MDCK II cells (Madin–Darby canine kidney II)
in vitro [13] = details: human, HEK293 cells (embryonal kidney)
in vitro [14] = details: human, HepG2 cells (hepatocellular carcinoma)
in vitro [15] = details: human, NHDF cells (normal human dermal fibroblasts)
COX-1 = COX-1 (Homo sapiens, UniProt P23219); assay: Human off-target inhibition, COX-1; assay type: biochemical
Procedure: as §1

ColQ1-CU [16] = target: T3, ColQ1-CU; assay type: biochemical, B. cereus; details: for Reversibility of inhibition, ColQ1-CU: rapid dilution
[17] = AH187, BHI medium, 37 °C, 48 h, 200–3 μM

T1 sequence (P08253 110-444 limits assumed): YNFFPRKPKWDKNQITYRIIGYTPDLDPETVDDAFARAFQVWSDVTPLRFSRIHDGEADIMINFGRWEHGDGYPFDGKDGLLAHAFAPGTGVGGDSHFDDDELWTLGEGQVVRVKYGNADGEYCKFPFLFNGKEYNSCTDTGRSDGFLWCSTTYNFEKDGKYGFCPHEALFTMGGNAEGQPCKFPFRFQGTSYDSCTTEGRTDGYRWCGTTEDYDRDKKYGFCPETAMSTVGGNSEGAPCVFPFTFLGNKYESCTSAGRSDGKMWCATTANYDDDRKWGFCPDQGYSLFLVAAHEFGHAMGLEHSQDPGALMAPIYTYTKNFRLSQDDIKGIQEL

With `NCCCC(O)(P(=O)([O-])O)P(=O)(O)O.[Na+]` [Alendronate sodium, reference compound] the IC50 (MMP-2) was over 100 µM, the inhibition at 100 µM (ColG-CU [1]) was 28 ± 7% and the IC50 (TACE (ADAM-17)) was over 100 µM. The inhibition at 100 µM (ColQ1-CU [2]) was 76 ± 1%, the inhibition at 100 µM (ColH-PD [3]) was 25 ± 5% and the IC50 (HDAC-8) was over 100 µM. The IC50 (MMP-3) was over 100 µM, the inhibition at 100 µM (ColA-CU [4]) was 18 ± 4% and the IC50 (HDAC-3) was over 100 µM. The IC50 (MMP-1) was over 100 µM, the MIC50 (B. cereus AH187; AH187, 48 h) was 200 µM and the “Increase in survival of infected larvae” value ([5]; in vivo) was 40%. The “Survival of infected larvae vs control without inhibitor” value ([5]; in vivo) was “ameliorated the survival of the larvae in a dose-dependent manner”.

With `O=P(O)(O)c1nc2ccc(Br)cc2nc1P(=O)(O)O` [Compound 10, (6-Bromoquinoxaline-2,3-diyl)bis(phosphonic acid)] the IC50 (ColQ1-CU [2]) was 2.5 ± 0.2 µM, the “Inhibitory effect on gelatinolytic activity of secreted collagenases” value (shortened to “Inhibitory effect”) [6] was “inhibited the collagenase activity toward gelatin only marginally at 100 μM” and the “Effect on cell morphology and ECM collagen content of infected NHDF cells” value [7] was “smaller effect at all concentrations tested (except for 10, which resulted in higher cell viability and attachment at 100 μM)”. For the same compound, the MIC50 (B. cereus AH187; [17]) was 200 µM (≈ 73.8 µg/mL), the “Protection of Col I chains from cleavage by ColQ1-FL” value (“Protection of Col I chains” for short) (ColQ1-FL) was “showed inhibition only at 12.5 μM” and the “TEER of infected MDCK II cells” value [8] was “failed to sustain the TEER of the infected cells”.

In the case of `Cc1ccc2nc(P(=O)(O)O)c(P(=O)(O)O)nc2c1` [Compound 11, (6-Methylquinoxaline-2,3-diyl)bis(phosphonic acid)], the IC50 (ColQ1-CU [2]) is reported as 3.4 ± 0.1 µM, the inhibition at 100 µM (ColQ1-CU [2]) is reported as 58% and the “Inhibitory effect” value [6] is reported as “inhibited the collagenase activity toward gelatin only marginally at 100 μM”. For the same compound, the “Effect on cell morphology and ECM collagen content of infected NHDF cells” value [7] was “smaller effect at all concentrations tested”, the MIC50 (B. cereus AH187; [17]) was 200 µM (≈ 60.8 µg/mL) and the “Protection of Col I chains” value (ColQ1-FL) was “inhibited the collagenase activity at all concentrations tested”.

For `O=P(O)(O)c1nc2ccc(-c3ccc(Cl)cc3)cc2nc1P(=O)(O)O` [Compound 15, (6-(4-Chlorophenyl)quinoxaline-2,3-diyl)bis(phosphonic acid)], the “Reversibility of inhibition, ColA-CU” value (ColA-CU [9]) was “progress curve typical for slowly dissociating inhibitors”, the IC50 (MMP-2) was over 100 µM and the inhibition at 100 µM (ColG-CU [1]; 100 μM) was 70 ± 8%. The IC50 (TACE (ADAM-17)) was over 100 µM, the “Reversibility of inhibition, ColG” value (ColG-CU [10]) was “rapidly reversible inhibitors” and the IC50 (ColQ1-CU [2]) was 10.5 µM. For the same compound, the “Inhibitory effect” value [6] was “clear dose-dependent inhibitory effect on gelatin turnover”, the inhibition at 100 µM (ColH-PD [3]; 100 μM) was 97 ± 5% and the IC50 (HDAC-8) was over 100 µM. For the same compound, the “Reversibility of inhibition, ColH” value (ColH-PD [11]) was “reversed compared to ColA”, the IC50 (MMP-3) was over 100 µM and the inhibition at 100 µM (ColA-CU [4]; 100 μM) was 86 ± 8%. The IC50 (in vitro [12]) was over 200 µM, the IC50 (HDAC-3) was over 100 µM and the IC50 (in vitro [13]) was over 100 µM. The IC50 (in vitro [14]) was over 100 µM, the IC50 (in vitro [15]) was over 200 µM and the IC50 (MMP-1) was over 100 µM. The “Concentration showing dose-dependent effects on NHDF morphology, fibrillar ECM collagen content and LDH release” value [7] was at least 100 μM, the MIC50 (B. cereus AH187; [17]) was 100 µM (≈ 40.1 µg/mL) and the IC50 (COX-1) was over 100 µM. The “Protection of Col I chains” value (ColQ1-FL) was “inhibited the collagenase activity at all concentrations tested”, the “Residual activity after rapid dilution” value (ColQ1-CU [16]; 30 min preincubation at 10-fold IC50, 100-fold dilution) was “less than 9%” and the “Reversibility of inhibition, ColQ1-CU” value (ColQ1-CU [16]) was “irreversible or very slowly dissociating inhibitors”. For the same compound, the “Effect on survival of infected larvae” value ([5]; 25 μM) was “reduced effect”, the “Increase in survival of infected larvae” value ([5]; 100 μM) was “about 35%” and the “Survival of infected larvae vs control without inhibitor” value ([5]; 37 °C, 3 days) was “ameliorated the survival of the larvae in a dose-dependent manner”. The “TEER of infected MDCK II cells” value [8] was “preserve the TEER value”.

In the case of `CC(=O)Nc1ccc(OCc2cn(CCNC(=O)C(CC(C)C)C(=O)NO)nn2)cc1` (stereo not shown) [Compound 29, N-[2-[4-[(4-Acetamidophenoxy)methyl]triazol-1-yl]ethyl]-2-(hydroxycarbamoyl)-4-methyl-pentanamide], the IC50 (ColQ1-CU [2]) is reported as 35 ± 3 µM, the “Inhibitory effect” value [6] is reported as “no inhibitory effect on the collagenase in the zymography at all tested concentrations; also recorded: no inhibition of the collagenase in the gelatin zymography was detected” and the “Effect on cell morphology and ECM collagen content of infected NHDF cells” value [7] is reported as “neither able to rescue cell morphology nor able to maintain the collagen content of the ECM”. For the same compound, the “Protection of Col I chains” value (ColQ1-FL) was “severe degradation was visible at all tested concentrations”.

In the case of `CC(C)CC(C(=O)NO)C(=O)NCCn1cc(COc2ccccc2)nn1` (stereo not shown) [Compound 31, 2-(Hydroxycarbamoyl)-4-methyl-N-[2-[4-(phenoxymethyl)triazol-1-yl]ethyl]pentanamide], the IC50 (ColQ1-CU [2]) is reported as 12 ± 1 µM, the “Inhibitory effect” value [6] is reported as “no inhibitory effect on the collagenase in the zymography at all tested concentrations; also recorded: no inhibition of the collagenase in the gelatin zymography was detected” and the “Effect on cell morphology and ECM collagen content of infected NHDF cells” value [7] is reported as “neither able to rescue cell morphology nor able to maintain the collagen content of the ECM”. The “Protection of Col I chains” value (ColQ1-FL) was “severe degradation was visible at all tested concentrations”.

For `CC(C)CC(C(=O)NO)C(=O)NCCn1cc(CSc2ccccc2)nn1` (stereo not shown) [Compound 32, 2-(Hydroxycarbamoyl)-4-methyl-N-[2-[4-(phenylsulfanylmethyl)triazol-1 yl]ethyl]pentanamide], the IC50 (ColQ1-CU [2]) was 10.1 ± 0.9 µM, the “Inhibitory effect” value [6] was “no inhibitory effect on the collagenase in the zymography at all tested concentrations; also recorded: no inhibition of the collagenase in the gelatin zymography was detected” and the “Effect on cell morphology and ECM collagen content of infected NHDF cells” value [7] was “neither able to rescue cell morphology nor able to maintain the collagen content of the ECM”. For the same compound, the “Protection of Col I chains” value (ColQ1-FL) was “severe degradation was visible at all tested concentrations”.

For `CC(=O)Nc1ccccc1OCc1cn(CCNC(=O)C(Cc2ccccc2)C(=O)NO)nn1` (stereo not shown) [Compound 33, N-[2-[4-[(2-Acetamidophenoxy)methyl]triazol-1-yl]ethyl]-2-benzyl-3-(hydroxyamino)-3-oxo-propanamide], the “Reversibility of inhibition, ColA-CU” value (ColA-CU [9]) was “rapidly reversible inhibitors”, the Ki (ColG-CU [1]) was 18.4 ± 0.6 µM and the “Reversibility of inhibition, ColG” value (ColG-CU [10]) was “rapidly reversible inhibitors”. The IC50 (ColQ1-CU [2]) was 1.6 ± 0.1 µM, the Ki (ColQ1-CU [2]) was 0.82 ± 0.07 µM and the “Inhibitory effect” value [6] was “no inhibitory effect on the collagenase in the zymography at all tested concentrations; also recorded: no inhibition of the collagenase in the gelatin zymography was detected”. The Ki (ColH-PD [3]) was 1.7 ± 0.2 µM, the “Reversibility of inhibition, ColH” value (ColH-PD [11]) was “rapidly reversible inhibitors” and the Ki (ColA-CU [4]) was 4.7 ± 0.3 µM. The “Effect on cell morphology and ECM collagen content of infected NHDF cells” value [7] was “neither able to rescue cell morphology nor able to maintain the collagen content of the ECM” and the “Reversibility of inhibition, ColQ1-CU” value (ColQ1-CU [16]) was “rapidly reversible inhibitors”.

— publication PMC9574867, “Discovery and Characterization of Synthesized and FDA-Approved Inhibitors of Clostridial and Bacillary Collagenases” (Journal of Medicinal Chemistry, 2022)
